Measurements taken from patent US20260183275A1, “SUBSTITUTED QUINOLONE COMPOUNDS USEFUL AS INHIBITORS OF TLR9” (Bristol-Myers Squibb Company, priority 2022, published 2026).

Key:
Type in all cases: cell-based
[1] = biological target: T1, human TLR9 (Homo sapiens, UniProt Q9NR96); test: TLR9 inhibition reporter assay (HEK-Blue cells, SEAP reporter); details: HEK-Blue cells overexpressing human TLR9; stimulated with ODN2006 5 nM; SEAP read after 22 hour; dose range 0.05 nM-50 μM
T1 construct: host or cells: HEK-Blue cells
T1 sequence (Q9NR96 26-1032): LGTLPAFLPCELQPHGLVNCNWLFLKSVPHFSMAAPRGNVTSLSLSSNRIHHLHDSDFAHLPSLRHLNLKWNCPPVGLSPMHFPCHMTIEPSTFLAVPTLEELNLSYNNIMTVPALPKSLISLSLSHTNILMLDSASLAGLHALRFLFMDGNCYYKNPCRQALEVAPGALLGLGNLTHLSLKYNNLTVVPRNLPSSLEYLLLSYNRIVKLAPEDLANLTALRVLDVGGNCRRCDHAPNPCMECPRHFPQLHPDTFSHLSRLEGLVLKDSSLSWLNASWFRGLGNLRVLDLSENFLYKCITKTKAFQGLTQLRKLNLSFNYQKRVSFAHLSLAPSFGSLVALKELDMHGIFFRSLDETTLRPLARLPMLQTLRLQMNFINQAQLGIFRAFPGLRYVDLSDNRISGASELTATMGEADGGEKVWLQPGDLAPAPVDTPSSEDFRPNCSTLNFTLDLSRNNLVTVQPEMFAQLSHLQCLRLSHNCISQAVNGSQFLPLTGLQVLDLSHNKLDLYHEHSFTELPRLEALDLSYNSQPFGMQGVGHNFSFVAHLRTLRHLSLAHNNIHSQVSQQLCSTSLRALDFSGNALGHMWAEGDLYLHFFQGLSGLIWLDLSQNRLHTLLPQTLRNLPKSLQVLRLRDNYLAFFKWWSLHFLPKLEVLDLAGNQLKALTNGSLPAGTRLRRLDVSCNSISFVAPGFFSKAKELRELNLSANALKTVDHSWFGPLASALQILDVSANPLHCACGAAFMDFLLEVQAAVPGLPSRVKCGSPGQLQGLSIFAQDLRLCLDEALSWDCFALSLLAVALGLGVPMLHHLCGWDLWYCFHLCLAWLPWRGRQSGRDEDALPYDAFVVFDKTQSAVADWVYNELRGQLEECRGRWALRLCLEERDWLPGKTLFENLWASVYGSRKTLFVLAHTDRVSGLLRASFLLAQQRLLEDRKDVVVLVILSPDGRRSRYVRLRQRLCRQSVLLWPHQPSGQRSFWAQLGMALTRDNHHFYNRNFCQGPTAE
Procedure, shortened: (§1)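 HEK-Blue cells with NF-κB/AP-1-driven SEAP pre-treated 30 min with compounds (0.05 nM-50 μM), then stimulated with gardiquimod 7.5 μM (TLR7), R848 15.9 μM (TLR8) or ODN2006 5 nM (TLR9). SEAP read after 22 h at 37° C; % inhibition relative to agonist+DMSO and reference-inhibitor wells.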

[2] = biological target: T2, human TLR7 (Homo sapiens, UniProt Q9NYK1); test: TLR7 inhibition reporter assay (HEK-Blue cells, SEAP reporter); details: HEK-Blue cells overexpressing human TLR7; stimulated with gardiquimod 7.5 μM; SEAP read after 22 hour; dose range 0.05 nM-50 μM
T2 construct: host or cells: HEK-Blue cells
T2 sequence (Q9NYK1 27-1049): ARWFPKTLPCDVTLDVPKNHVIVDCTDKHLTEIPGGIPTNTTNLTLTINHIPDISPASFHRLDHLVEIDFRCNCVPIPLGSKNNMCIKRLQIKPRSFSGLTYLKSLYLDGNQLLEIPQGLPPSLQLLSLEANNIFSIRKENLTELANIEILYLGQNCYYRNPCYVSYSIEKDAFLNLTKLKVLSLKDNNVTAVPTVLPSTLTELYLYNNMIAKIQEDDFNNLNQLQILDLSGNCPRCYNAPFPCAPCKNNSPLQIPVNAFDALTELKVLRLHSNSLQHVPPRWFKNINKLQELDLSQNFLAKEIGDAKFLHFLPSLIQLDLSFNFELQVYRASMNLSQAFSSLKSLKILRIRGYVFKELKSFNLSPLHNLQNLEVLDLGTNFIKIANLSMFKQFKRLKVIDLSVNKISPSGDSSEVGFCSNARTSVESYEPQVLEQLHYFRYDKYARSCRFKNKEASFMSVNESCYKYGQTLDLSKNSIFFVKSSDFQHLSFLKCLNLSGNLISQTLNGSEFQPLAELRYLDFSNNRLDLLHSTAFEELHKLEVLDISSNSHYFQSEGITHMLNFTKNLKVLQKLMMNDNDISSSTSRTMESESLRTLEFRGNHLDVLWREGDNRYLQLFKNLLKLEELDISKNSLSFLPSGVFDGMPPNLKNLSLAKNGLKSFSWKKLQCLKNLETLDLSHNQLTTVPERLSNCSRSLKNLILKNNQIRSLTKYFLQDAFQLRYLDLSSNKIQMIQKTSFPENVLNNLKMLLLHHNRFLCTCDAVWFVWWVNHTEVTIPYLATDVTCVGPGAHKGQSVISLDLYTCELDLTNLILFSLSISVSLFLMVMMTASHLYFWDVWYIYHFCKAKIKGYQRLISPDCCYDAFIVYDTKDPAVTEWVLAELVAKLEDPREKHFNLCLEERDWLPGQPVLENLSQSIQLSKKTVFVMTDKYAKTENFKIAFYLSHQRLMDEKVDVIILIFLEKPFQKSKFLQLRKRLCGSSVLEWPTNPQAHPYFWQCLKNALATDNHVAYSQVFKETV
Procedure, shortened: as §1

[3] = biological target: T3, human TLR8 (Homo sapiens, UniProt Q9NR97); test: TLR8 inhibition reporter assay (HEK-Blue cells, SEAP reporter); details: HEK-Blue cells overexpressing human TLR8; stimulated with R848 15.9 μM; SEAP read after 22 hour; dose range 0.05 nM-50 μM
T3 construct: host or cells: HEK-Blue cells
T3 sequence (Q9NR97 27-1041): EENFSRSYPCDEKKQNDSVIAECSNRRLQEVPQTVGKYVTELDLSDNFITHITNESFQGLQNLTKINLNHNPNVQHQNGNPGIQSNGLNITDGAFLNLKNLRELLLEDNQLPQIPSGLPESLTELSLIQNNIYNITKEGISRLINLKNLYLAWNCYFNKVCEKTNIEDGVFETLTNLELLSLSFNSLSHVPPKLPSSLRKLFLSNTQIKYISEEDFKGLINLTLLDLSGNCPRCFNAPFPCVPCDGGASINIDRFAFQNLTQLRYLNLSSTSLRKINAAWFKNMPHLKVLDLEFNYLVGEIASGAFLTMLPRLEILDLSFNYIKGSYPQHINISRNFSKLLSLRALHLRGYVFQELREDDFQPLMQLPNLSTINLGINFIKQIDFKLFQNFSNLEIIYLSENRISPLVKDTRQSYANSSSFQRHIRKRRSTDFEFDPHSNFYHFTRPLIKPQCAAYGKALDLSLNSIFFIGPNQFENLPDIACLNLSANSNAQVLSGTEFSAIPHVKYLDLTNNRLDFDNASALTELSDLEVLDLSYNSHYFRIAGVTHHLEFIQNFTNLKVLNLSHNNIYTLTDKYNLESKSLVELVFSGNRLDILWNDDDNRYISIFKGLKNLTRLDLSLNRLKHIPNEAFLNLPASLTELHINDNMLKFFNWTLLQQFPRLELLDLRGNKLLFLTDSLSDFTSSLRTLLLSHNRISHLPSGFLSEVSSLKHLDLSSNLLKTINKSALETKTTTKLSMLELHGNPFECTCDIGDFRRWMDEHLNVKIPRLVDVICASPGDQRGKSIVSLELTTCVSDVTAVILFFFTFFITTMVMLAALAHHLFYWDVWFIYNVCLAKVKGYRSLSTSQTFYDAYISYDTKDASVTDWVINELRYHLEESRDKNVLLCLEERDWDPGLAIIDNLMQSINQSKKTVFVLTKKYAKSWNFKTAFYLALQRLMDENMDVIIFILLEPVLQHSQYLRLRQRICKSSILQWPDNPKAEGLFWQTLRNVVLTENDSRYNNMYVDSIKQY
Procedure, shortened: as §1

Structure (SMILES) | IC50 [1] | IC50 [2] | IC50 [3]
Cn1c(=O)c(-c2ccc(S(C)(=O)=O)cc2)cc2cc(-c3ccc(C4CCN(C5COC5)CC4)cc3)ccc21 [Example 87, 3-(4-methanesulfonylphenyl)-1-methyl-6-{4-[1-(oxetan-3-yl)piperidin-4-yl]phenyl}-1,2-dihydroquinolin-2-one] | 0.416 µM | ≥ 50 µM | 30 µM
CC(C)N1CCC(c2ccc(-c3ccc4c(c3)cc(-c3ccc(S(C)(=O)=O)cc3)c(=O)n4CC(C)(C)O)cc2)CC1 [Example 89, 1-(2-hydroxy-2-methylpropyl)-3-(4-methanesulfonylphenyl)-6-{4-[1-(propan-2-yl)piperidin-4-yl]phenyl}-1,2-dihydroquinolin-2-one] | 0.465 µM | 4.96 µM | 10.9 µM
O=c1[nH]c2ccc(-c3ccc(C4CCN(C5COC5)CC4)cc3)cc2cc1-c1ccc(OC(F)F)cc1 [Example 91, 3-[4-(difluoromethoxy)phenyl]-6-{4-[1-(oxetan-3-yl)piperidin-4-yl]phenyl}-1,2-dihydroquinolin-2-one] | 0.512 µM | ≥ 50 µM | ≥ 50 µM
O=c1[nH]c2ccc(-c3ccc(C4CCN(C5COC5)CC4)cc3)cc2cc1-c1ccc2nccnc2c1 [Example 94, 6-{4-[1-(oxetan-3-yl)piperidin-4-yl]phenyl}-3-(quinoxalin-6-yl)-1,2-dihydroquinolin-2-one] | 0.689 µM | ≥ 50 µM | ≥ 50 µM
CCc1c(-c2ccc(OC)c(OC)c2)c(=O)[nH]c2ccc(-c3ccc(N4CCN(C(C)C)CC4)cc3)cc12 [Example 95, 3-(3,4-dimethoxyphenyl)-4-ethyl-6-{4-[4-(propan-2-yl)piperazin-1-yl]phenyl}-1,2-dihydroquinolin-2-one] | 0.691 µM | 5.89 µM | 0.731 µM
CC(C)N1CCC(c2ccc(-c3ccc4c(c3)cc(-c3ccc(N(C)C)cc3)c(=O)n4C)cc2)CC1 [Example 96, 3-[4-(dimethylamino)phenyl]-1-methyl-6-{4-[1-(propan-2-yl)piperidin-4-yl]phenyl}-1,2-dihydroquinolin-2-one] | 1.43 µM | 17.3 µM | ≥ 50 µM
CN1CCC(c2ccc3[nH]c(=O)c(-c4ccc(S(C)(=O)=O)cc4)cc3c2)CC1 [Example 97, 3-(4-methanesulfonylphenyl)-6-(1-methylpiperidin-4-yl)-1,2-dihydroquinolin-2-one] | 0.96 µM | 2.51 µM | 20.1 µM
CS(=O)(=O)Nc1cccc(-c2cc3cc(-c4ccc(C5CCN(C6COC6)CC5)cc4)ccc3[nH]c2=O)c1 [Example 98, N-[3-(6-{4-[1-(oxetan-3-yl)piperidin-4-yl]phenyl}-2-oxo-1,2-dihydroquinolin-3-yl)phenyl]methanesulfonamide] | 1.43 µM | ≥ 50 µM | 26.7 µM
N#Cc1cccc(-c2cc3cc(-c4ccc(C5CCN(C6COC6)CC5)cc4)ccc3[nH]c2=O)c1 [Example 99, 3-(6-{4-[1-(oxetan-3-yl)piperidin-4-yl]phenyl}-2-oxo-1,2-dihydroquinolin-3-yl) benzonitrile] | 1.65 µM | 16.7 µM | ≥ 50 µM

Next, values leading:

IC50 [1] | IC50 [2] | IC50 [3] | Structure (SMILES)
0.4 µM | 14.6 µM | 26.3 µM | CC(C)Cn1c(=O)c(-c2ccc(S(C)(=O)=O)cc2)cc2cc(-c3ccc(C4CCN(C(C)C)CC4)cc3)ccc21 [Example 85, 3-(4-methanesulfonylphenyl)-1-(2-methylpropyl)-6-{4-[1-(propan-2-yl)piperidin-4-yl]phenyl}-1,2-dihydroquinolin-2-one]
0.406 µM | 10.4 µM | 1.55 µM | CCc1c(-c2ccc(S(C)(=O)=O)cc2)c(=O)n(C)c2ccc(-c3ccc(C4CCN(C(C)C)CC4)cc3)cc12 [Example 86, 4-ethyl-3-(4-methanesulfonylphenyl)-1-methyl-6-{4-[1-(propan-2-yl)piperidin-4-yl]phenyl}-1,2-dihydroquinolin-2-one]
0.493 µM | 3.09 µM | ≥ 50 µM | CC(C)N1CCN(c2ccc(Nc3ccc4[nH]c(=O)c(-c5ccc(S(C)(=O)=O)cc5)cc4c3)cc2)CC1 [Example 90, 3-(4-methanesulfonylphenyl)-6-({4-[4-(propan-2-yl)piperazin-1-yl]phenyl}amino)-1,2-dihydroquinolin-2-one]
0.56 µM | ≥ 50 µM | 11.4 µM | NS(=O)(=O)c1ccc(-c2cc3cc(-c4ccc(C5CCN(C6COC6)CC5)cc4)ccc3[nH]c2=O)cc1 [Example 92, 4-(6-{4-[1-(oxetan-3-yl)piperidin-4-yl]phenyl}-2-oxo-1,2-dihydroquinolin-3-yl)benzene-1-sulfonamide]
0.651 µM | 1.87 µM | 49.8 µM | CC(C)N1CCC(c2ccc(-c3ccc4[nH]c(=O)c(-c5ccc6nccnc6c5)cc4c3)cc2)CC1 [Example 93, 6-{4-[1-(propan-2-yl)piperidin-4-yl]phenyl}-3-(quinoxalin-6yl)-1,2-dihydroquinolin-2-one]
